Source: patent US11319299B2, “Substituted carboxamides as inhibitors of WDR5 protein-protein binding” (PROPELLON THERAPEUTICS INC., priority 2016, dated 2022)

Each molecule was assayed against WDR5 (Homo sapiens (Human), UniProt P61964) (assay: Surface Plasmon Resonance (SPR) assay, KD and residence time). Conditions: surface plasmon resonance (SPR); read-out: WDR5 binding affinity (KD).
Format: binding

Structure (SMILES)	Kd
C[C@@H]1CN(c2cc(F)c(-c3cc(F)c(C(=O)NCC4CC4)c(F)c3)cc2NC(=O)c2c[nH]c(=O)cc2C(F)(F)F)C[C@H](C)N1C [Example 712, N-[5-[4-(cyclopropylmethylcarbamoyl)-3,5-difluorophenyl]-4-fluoro-2-[(3R,5S)-3,4,5-trimethylpiperazin-1-yl]phenyl]-6-oxo-4-(trifluoromethyl)-1H-pyridine-3-carboxamide]	0.00223 µM
C[C@@H]1CN(c2cc(F)c(-c3csc(CN4CCOCC4)n3)cc2NC(=O)c2c[nH]c(=O)cc2C(F)(F)F)C[C@H](C)N1C [Example 713, N-[4-fluoro-5-[2-(morpholin-4-ylmethyl)-1,3-thiazol-4-yl]-2-[(3R,5S)-3,4,5-trimethylpiperazin-1-yl]phenyl]-6-oxo-4-(trifluoromethyl)-1H-pyridine-3-carboxamide]	0.00259 µM
C[C@@H]1CN(c2cc(F)c(-c3cnn(CCN4CCOCC4)c3)cc2NC(=O)c2c[nH]c(=O)cc2C(F)(F)F)C[C@H](C)N1C [Example 716, N-[4-fluoro-5-[1-(2-morpholin-4-ylethyl)pyrazol-4-yl]-2-[(3R,5S)-3,4,5-trimethylpiperazin-1-yl]phenyl]-6-oxo-4-(trifluoromethyl)-1H-pyridine-3-carboxamide]	0.00242 µM
C[C@@H]1CN(c2cc(F)c(-c3cnn(CCN4CCOCC4)c3)cc2NC(=O)c2cn(C)c(=O)cc2C(F)F)C[C@H](C)N1C [Example 717, 4-(difluoromethyl)-N-[4-fluoro-5-[1-(2-morpholin-4-ylethyl)pyrazol-4-yl]-2-[(3R,5S)-3,4,5-trimethylpiperazin-1-yl]phenyl]-1-methyl-6-oxopyridine-3-carboxamide]	0.0216 µM
C[C@@H]1CN(c2cc(F)c(-c3cnc(N4CCOCC4)nc3)cc2NC(=O)c2ccc(F)cc2C(F)F)C[C@H](C)N1C [Example 722, 2-(difluoromethyl)-4-fluoro-N-[4-fluoro-5-(2-morpholin-4-ylpyrimidin-5-yl)-2-[(3R,5S)-3,4,5-trimethylpiperazin-1-yl]phenyl]benzamide]	0.00136 µM
CC(C)OC(=O)N1CCC=C(c2cc(NC(=O)c3c[nH]c(=O)cc3C(F)F)c(N3C[C@@H](C)N(C)[C@@H](C)C3)cc2F)CC1 [Example 723, propan-2-yl 4-[5-[[4-(difluoromethyl)-6-oxo-1H-pyridine-3-carbonyl]amino]-2-fluoro-4-[(3R,5S)-3,4,5-trimethylpiperazin-1-yl]phenyl]-2,3,6,7-tetrahydroazepine-1-carboxylate]	0.00312 µM
CC(C)OC(=O)N1CCC=C(c2cc(NC(=O)c3c[nH]c(=O)cc3C(F)F)c(N3C[C@@H](C)N(C)[C@@H](C)C3)cc2F)C1 [Example 725, propan-2-yl 5-[5-[[4-(difluoromethyl)-6-oxo-1H-pyridine-3-carbonyl]amino]-2-fluoro-4-[(3R,5S)-3,4,5-trimethylpiperazin-1-yl]phenyl]-3,6-dihydro-2H-pyridine-1-carboxylate]	0.00159 µM
C[C@@H]1CN(c2cc(F)c(C3=CCCN(C(=O)OC4(C)CCC4)CC3)cc2NC(=O)c2c[nH]c(=O)cc2C(F)F)C[C@H](C)N1C [Example 729, (1-methylcyclobutyl) 4-[5-[[4-(difluoromethyl)-6-oxo-1H-pyridine-3-carbonyl]amino]-2-fluoro-4-[(3R,5S)-3,4,5-trimethylpiperazin-1-yl]phenyl]-2,3,6,7-tetrahydroazepine-1-carboxylate]	0.00311 µM
C[C@@H]1CN(c2cc(F)c(C3=CCCN(C(=O)OC4CC(F)(F)C4)CC3)cc2NC(=O)c2c[nH]c(=O)cc2C(F)F)C[C@H](C)N1C [Example 730, (3,3-difluorocyclobutyl) 4-[5-[[4-(difluoromethyl)-6-oxo-1H-pyridine-3-carbonyl]amino]-2-fluoro-4-[(3R,5S)-3,4,5-trimethylpiperazin-1-yl]phenyl]-2,3,6,7-tetrahydroazepine-1-carboxylate]	0.00799 µM
C[C@@H]1CN(c2cc(F)c(C3=CCCN(c4ncc(C#N)s4)CC3)cc2NC(=O)c2c[nH]c(=O)cc2C(F)F)C[C@H](C)N1C [Example 731, N-[5-[1-(5-cyano-1,3-thiazol-2-yl)-2,3,6,7-tetrahydroazepin-4-yl]-4-fluoro-2-[(3R,5S)-3,4,5-trimethylpiperazin-1-yl]phenyl]-4-(difluoromethyl)-6-oxo-1H-pyridine-3-carboxamide]	0.00761 µM
C[C@@H]1CN(c2cc(F)c(-c3ccc(C(=O)NC4CCCCC4)c(F)c3)cc2NC(=O)c2c[nH]c(=O)cc2C(F)(F)F)C[C@H](C)N1C [Example 732, N-[5-[4-(cyclohexylcarbamoyl)-3-fluorophenyl]-4-fluoro-2-[(3R,5S)-3,4,5-trimethylpiperazin-1-yl]phenyl]-6-oxo-4-(trifluoromethyl)-1H-pyridine-3-carboxamide]	0.00276 µM
C[C@@H]1CN(c2cc(F)c(-c3ccc(C(=O)N(C)CC4CC4)c(F)c3)cc2NC(=O)c2c[nH]c(=O)cc2C(F)(F)F)C[C@H](C)N1C [Example 733, N-[5-[4-[cyclopropylmethyl(methyl)carbamoyl]-3-fluorophenyl]-4-fluoro-2-[(3R,5S)-3,4,5-trimethylpiperazin-1-yl]phenyl]-6-oxo-4-(trifluoromethyl)-1H-pyridine-3-carboxamide]	0.00129 µM
C[C@@H]1CN(c2cc(F)c(-c3ccc(C(=O)NC4CCC(F)(F)CC4)c(F)c3)cc2NC(=O)c2c[nH]c(=O)cc2C(F)(F)F)C[C@H](C)N1C [Example 734, N-[5-[4-[(4,4-difluorocyclohexyl)carbamoyl]-3-fluorophenyl]-4-fluoro-2-[(3R,5S)-3,4,5-trimethylpiperazin-1-yl]phenyl]-6-oxo-4-(trifluoromethyl)-1H-pyridine-3-carboxamide]	0.00413 µM
C[C@@H]1CN(c2cc(F)c(-c3ccc(C(=O)NCC4CC4)c(F)c3)cc2NC(=O)c2c[nH]c(=O)cc2C(F)(F)F)C[C@H](C)N1C [Example 735, N-[5-[4-(cyclopropylmethylcarbamoyl)-3-fluorophenyl]-4-fluoro-2-[(3R,5S)-3,4,5-trimethylpiperazin-1-yl]phenyl]-6-oxo-4-(trifluoromethyl)-H-pyridine-3-carboxamide]	0.00423 µM
C[C@@H]1COCCN1c1ncc(-c2cc(NC(=O)c3ccc(F)cc3C(F)(F)F)c(N3CCN(C)[C@@H](C)C3)cc2F)cn1 [Example 737, 4-fluoro-N-[4-fluoro-2-[(3S)-3,4-dimethylpiperazin-1-yl]-5-[2-[(3R)-3-methylmorpholin-4-yl]pyrimidin-5-yl]phenyl]-2-(trifluoromethyl)benzamide]	0.00461 µM
C[C@@H]1CN(c2nccc(-c3cc(NC(=O)c4ccc(F)cc4C(F)(F)F)c(N4CCN(C)[C@@H](C)C4)cc3F)n2)CCO1 [Example 738, 4-fluoro-N-[4-fluoro-2-[(3S)-3,4-dimethylpiperazin-1-yl]-5-[2-[(2R)-2-methylmorpholin-4-yl]pyrimidin-4-yl]phenyl]-2-(trifluoromethyl)benzamide]	0.004 µM
C[C@@H]1CN(c2cc(F)c(-c3nc(CN4CCOCC4)cs3)cc2NC(=O)c2cn(C)c(=O)cc2C(F)F)C[C@H](C)N1C [Example 741, 4-(difluoromethyl)-N-[4-fluoro-5-[4-(morpholin-4-ylmethyl)-1,3-thiazol-2-yl]-2-[(3R,5S)-3,4,5-trimethylpiperazin-1-yl]phenyl]-1-methyl-6-oxopyridine-3-carboxamide]	0.00675 µM
C[C@@H]1CN(c2nccc(-c3cc(NC(=O)c4cn(C)c(=O)cc4C(F)(F)F)c(N4C[C@@H](C)N(C)[C@@H](C)C4)cc3F)n2)C[C@H](C)O1 [Example 743, N-[4-fluoro-5-[2-[(2R,6S)-2,6-dimethylmorpholin-4-yl]pyrimidin-4-yl]-2-[(3R,5S)-3,4,5-trimethylpiperazin-1-yl]phenyl]-1-methyl-6-oxo-4-(trifluoromethyl)pyridine-3-carboxamide]	0.00522 µM
C[C@@H]1CN(c2nccc(-c3cc(NC(=O)c4c[nH]c(=O)cc4C(F)F)c(N4C[C@@H](C)N(C)[C@@H](C)C4)cc3F)n2)C[C@H](C)O1 [Example 744, 4-(difluoromethyl)-N-[4-fluoro-5-[2-[(2R,6S)-2,6-dimethylmorpholin-4-yl]pyrimidin-4-yl]-2-[(3S,5R)-3,4,5-trimethylpiperazin-1-yl]phenyl]-6-oxo-1H-pyridine-3-carboxamide]	0.00276 µM
C[C@@H]1CN(c2nccc(-c3cc(NC(=O)c4cn(C)c(=O)cc4C(F)F)c(N4C[C@@H](C)N(C)[C@@H](C)C4)cc3F)n2)C[C@H](C)O1 [Example 745, 4-(difluoromethyl)-N-[4-fluoro-5-[2-[(2R,6S)-2,6-dimethylmorpholin-4-yl]pyrimidin-4-yl]-2-[(3R,5S)-3,4,5-trimethylpiperazin-1-yl]phenyl]-1-methyl-6-oxopyridine-3-carboxamide]	0.0056 µM
C[C@@H]1CN(c2cc(F)c(-c3ccnc(N4CCOCC4)n3)cc2NC(=O)c2cn(C)c(=O)cc2C(F)F)C[C@H](C)N1C [Example 746, 4-(difluoromethyl)-N-[4-fluoro-5-(2-morpholin-4-ylpyrimidin-4-yl)-2-[(3R,5S)-3,4,5-trimethylpiperazin-1-yl]phenyl]-1-methyl-6-oxopyridine-3-carboxamide]	13600 µM
C[C@@H]1CN(c2cc(F)c(-c3ccc(C(=O)NC4CCCCC4(C)C)c(F)c3)cc2NC(=O)c2c[nH]c(=O)cc2C(F)(F)F)C[C@H](C)N1C (stereo partly drawn) [Example 747, N-[5-[4-[(2,2-dimethylcyclohexyl)carbamoyl]-3-fluorophenyl]-4-fluoro-2-[(3R,5S)-3,4,5-trimethylpiperazin-1-yl]phenyl]-6-oxo-4-(trifluoromethyl)-1H-pyridine-3-carboxamide]	0.00485 µM
C[C@@H]1CN(c2cc(F)c(-c3ncc(CN4CCOCC4)s3)cc2NC(=O)c2cn(C)c(=O)cc2C(F)F)C[C@H](C)N1C [Example 748, 4-(difluoromethyl)-N-[4-fluoro-5-[5-(morpholin-4-ylmethyl)-1,3-thiazol-2-yl]-2-[(3R,5S)-3,4,5-trimethylpiperazin-1-yl]phenyl]-1-methyl-6-oxopyridine-3-carboxamide]	0.0518 µM
C[C@@H]1CN(c2cc(F)c(-c3csc(CN4CCOCC4)n3)cc2NC(=O)c2cn(C)c(=O)cc2C(F)F)C[C@H](C)N1C [Example 749, 4-(difluoromethyl)-N-[4-fluoro-5-[2-(morpholin-4-ylmethyl)-1,3-thiazol-4-yl]-2-[(3R,5S)-3,4,5-trimethylpiperazin-1-yl]phenyl]-1-methyl-6-oxopyridine-3-carboxamide]	0.0106 µM
